In patent publication US20070015733A1, “Aryl Phosphate Derivatives of d4T having Activity Against Resistant HIV Strains” (Parker Hughes Institute, priority 1998, published 2007):
Where two headings read alike, the source gives them in different places.

Assays:
[1] = tested on: AZT- and NNI-resistant HIV-1 (strain: RTMDR-1); assay: Inhibition of RTMDR-1 (HIV-MDR) replication in PBMNC (RT activity); format: cell-based
Procedure: (§1) Cellular Assays of Anti-HIV Activity and Cytotoxicity. […] Percent viral inhibition was calculated by comparing the RT activity values from the test substance-treated infected cells with RT values from untreated infected cells (i.e., virus controls).

[2] = tested on: zidovudine-resistant primary clinical HIV-1 isolates in CD4-expressing HeLa cell line HT4-6C; assay: Syncytial focus (plaque) formation assay in HT4-6C cells; format: cell-based; conditions: Human immunodeficiency virus 1, HeLa
Procedure: Plaque formation assays. The syncytial focus (plaque) assay permits quantitation of infectivity of HIV. In brief, a CD4-expressing HeLa cell line (HT4-6C) (AIDS Research and Reference Reagent Program, NIAID) is cultured in 24-well tissue culture plates at 2.5-3.0×10^4 cells/ml in the presence of virus inoculum (100 plaque forming units) and several concentrations of the antiviral agent. The virus was added first for a 2 hr incubation time prior to addition of the antiviral agents. […] Percent inhibition of plaque formation was calculated by comparing the plaque numbers from the test substance-treated infected cells with the plaque numbers from untreated infected cells (i.e., virus controls).

[3] = tested on: NRTI-resistant recombinant HIV-1 isolates; assay: RT activity assay, multi-NRTI-resistant recombinant HIV-1 clones; format: cell-based
[4] = tested on: HIV-1 A17 (Y181C mutant, NNRTI-resistant); assay: p24 antigen assay, A17 strain in PBMC; format: cell-based; conditions: Human immunodeficiency virus 1, PBMC
Text: In vitro assays of anti-HIV-1 activity.
Viruses. 20 primary clinical isolates with genotypic and/or phenotypic NRTI-resistance (isolated in the laboratory of D. Richman) and 10 clinical isolates with phenotypic stavudine (d4T) resistance (obtained through the AIDS Research and Reference Reagent Program, NIAID) were used in the current study. The HIV-1 strains HTLVIIIB (wildtype RT, NRTI-sensitive, NNRTI-sensitive), A17 (Y181 C mutant, NNRTI-resistant), A17-variant (Y181C+K103N mutant, NNRTI-resistant), and RT-MDR (M41 L, V106N, T215Y; NRTI-resistant, NNRTI-resistant) were also obtained from the AIDS Research and Reference Reagent Program, NIAID.
Antiviral susceptibility assays.

HIV-1 (strain: HTLVIIIB) = assay: microbe, parasite or virus in culture; format: cell-based
Procedure: (§2) Percent inhibition of viral replication was calculated by comparing the p24 and RT activity values from the test substance-treated infected cells with those from untreated infected cells. In parallel, the cytotoxicity of the compounds was examined using a microculture tetrazolium assay (MTA) of cell proliferation, as described.in the Zarling, Enrice, and Uckun articles Supra).
as §1

in vitro = conditions: human
Procedure: as §2, §1
Antiviral susceptibility assays. Phenotypic drug susceptibility studies of HIV-1 isolates and strains were performed by measuring the production of the p24 gag protein in peripheral blood mononuclear cells (PBMC) from seronegative healthy volunteers in the presence of increasing concentrations of the anti-HIV agent using the quantitative Coulter HIV-1 p24 antigen ezyme immunoassay (EIA) and HIV-1 p24 Antigen Kinetic Standard (Beckman Coulter), as previously described (Uckun, 1998, Antimicrobial Agents and Chemotherapy 37(4): 835-38). Informed consent was obtained from the blood donors according to DHHS guidelines using consent forms approved by the Institutional Review Board. In brief, PBMC were cultured for 72 h in RPMI 1640 medium (Gibco) supplemented with 20% (vol/vol) heat-inactivated fetal bovine serum, 5% human interleukin-2 (Zeptometrix), 2 mM L-glutamine, 25 mM HEPES, 2 g/L NaHCO3, 100 U/ml penicillin/streptomycin (Gibco), 50 μg/ml gentamicin (Gibco), and 5 μg/ml phytohemagglutinin-P (PHA-P) (Sigma) for 24-72 hours prior to exposure to HIV at a multiplicity of infection of 0.001-0.1 during a 1-h adsorbtion period at 37±1° C. in a humidified 5-7% CO2 atmosphere. Subsequently, cells were cultured in 96-well microtiter plates (100 μl/well; 2×10^6 cells/ml, triplicate wells) in the presence of the anti-HIV agents at 6-7 different concentrations ranging from 0.0001 μM to 100 μM, and 25 μL aliquots of culture supernatants were removed from the wells on day 6 after infection for p24 EIA, as previously described (Uckun, 1998, Antimicrobial Agents and Chemotherapy, 37(4):835-38). Controls included uninfected and untreated cells (background control) and infected but untreated (virus control) cells. The p24 EIA utilizes a murine monoclonal antibody to HIV core protein used to coat microwell strips to which the antigen present in the test culture supernatant samples binds. Percent inhibition of viral replication was calculated by comparing the p24 values from the test substance-treated infected cells with p24 values from untreated infected cells (i.e., virus controls). The IC50 values were determined using the Statview statistics program (SAS Institute, Inc.). In parallel, the effects of various treatments on cell viability were also examined as previously described (Uckun, 1998, Antimicrobial Agents and Chemotherapy, 42:383-388). In brief, noninfected PBMC were treated with each compound for 5 days under identical experimental conditions. A microculture tetrazolium assay (MTA) was performed to quantitate cellular proliferation (Uckun, 1998, Antimicrobial Agents and Chemotherapy, 42:383-388).
In parallel, the cytotoxicity of the compounds was examined using a microculture tetrazolium assay (MTA) of cell proliferation, as described (in the Zarling, Enrice, and Uckun articles Supra).

[5] = Human immunodeficiency virus 1, read-out: HIV-MDR IC50 [RT]
[6] = Human immunodeficiency virus 1, read-out: IC50 against HIV-MDR
[7] = Human immunodeficiency virus 1, read-out: RTMDR-1 IC50 [RT]
[8] = read-out: IC50, μM(Plaque Assay), Mean ± SE, mean over 9 zidovudine-resistant isolates
[9] = read-out: IC50, μM(Plaque Assay), isolate G190-6 (M41L, D67N, K70R, T215Y, K219Q)
[10] = read-out: IC50, μM(Plaque Assay), isolate G691-2 (mutations N.D.)
[11] = read-out: IC50, μM(Plaque Assay), isolate G704-2 (M41L, D67N, K70R, L210W, T215Y)
[12] = read-out: IC50, μM(Plaque Assay), isolate G780-1 (M41L, D67N, K70R, T215F, K219Q)
[13] = read-out: IC50, μM(Plaque Assay), isolate G890-1 (K20R, M41L, D67N, T69N, K70R, L210W, T215Y)
[14] = read-out: IC50, μM(Plaque Assay), isolate H112-2 (no RT mutation, ZDV-sensitive control)
[15] = read-out: IC50, μM(Plaque Assay), isolate J179-1 (M41L, D67N, L210W, T215Y)
[16] = read-out: IC50, μM(Plaque Assay), isolate M709-1 (L1210W, T215Y)
[17] = read-out: IC50, μM(Plaque Assay), isolate Q252-2 (M41L, L210W, T215Y)
[18] = read-out: IC50, μM(Plaque Assay), isolate U317-8 (M41L, L210W, T215Y)
[19] = Human immunodeficiency virus 1, read-out: IC50 (nM), RT, recombinant clone 1617-1
[20] = Human immunodeficiency virus 1, read-out: IC50 (nM), RT, recombinant clone 4755-5
[21] = Human immunodeficiency virus 1, read-out: IC50 (nM), RT, recombinant clone 7295-1
[22] = Human immunodeficiency virus 1, read-out: IC50 (nM), RT, recombinant clone 7324-1
[23] = Human immunodeficiency virus 1, read-out: IC50 (nM), RT, recombinant clone 52534-2
[24] = Human immunodeficiency virus 1, read-out: IC50 (nM), RT, recombinant clone 56252-1
[25] = Human immunodeficiency virus 1, read-out: mean IC50, RT, mean over 6 multi-NRTI-resistant clones
[26] = Human immunodeficiency virus 1, PBMC, read-out: IC50 value for inhibition of RT activity, peripheral blood mononuclear cells
[27] = Human immunodeficiency virus 1, read-out: IC50 [RT], PBMNC, unit not printed in Table 2 (0.040 = 40 nM)
[28] = Human immunodeficiency virus 1, read-out: IC50 [p24], PBMNC, unit not printed in Table 2 (0.018 = 18 nM)
[29] = Human immunodeficiency virus 1, read-out: PBMNC IC50 [RT], PBMNC, unit not given in Table 5 (0.04 = 40 nM)
[30] = multi-NRTI-resistant clones, IC50 RT

SMILES | IC50 [1, 5] | IC50 [1, 6] | IC50 [1, 7] | IC50 [2, 8] | IC50 [2, 9] | IC50 [2, 10] | IC50 [2, 11] | IC50 [2, 12] | IC50 [2, 13] | IC50 [2, 14] | IC50 [2, 15] | IC50 [2, 16] | IC50 [2, 17] | IC50 [2, 18] | IC50 [3, 19] | IC50 [3, 20] | IC50 [3, 21] | IC50 [3, 22] | IC50 [3, 23] | IC50 [3, 24] | further results
Cc1cn([C@H]2C[C@H](N=[N+]=[N-])[C@@H](CO)O2)c(=O)[nH]c1=O [AZT, 3′-azido-3′-deoxythymidine] | 2000 nM | 2000 nM | 2000 nM | 3.9 ± 1 µM | 10 µM | 7.8 µM | 5.7 µM | 1.8 µM | 3.6 µM | 0.015 µM | 2.6 µM | 3 µM | 2.8 µM | 2 µM | 174 nM | 15.4 nM | 0.8 nM | 108 nM | 54.8 nM | 187 nM | antiviral activity against RTMDR-1 (in words) ([1]; PBMNC): not effective; IC50 [3, 25]: 90 ± 32.4 nM; IC50 ([4]; read-out: IC50 A17): 0.055 nM; IC50 (HIV-1 (strain: HTLVIIIB); Human immunodeficiency virus 1, PBMC, peripheral blood mononuclear cells, read-out: IC50 value for inhibition of RT activity): 3 nM; IC50 (HIV-1 (strain: HTLVIIIB); Human immunodeficiency virus 1, PBMNC, unit not given in Table 5 (0.04 = 40 nM), read-out: PBMNC IC50 [RT]): 3 nM; CC50 at 5 days (in vitro; CC50): 0.0527 µM; CC50 at 5 days (in vitro; CC50, μM): 95.6 ± 2.9 µM; IC50 at 5 days (in vitro; PBMNC IC50 [MTA]): > 10000 nM
Cc1ccnc2c1NC(=O)c1cccnc1N2C1CC1 [nevirapine] | – | – | – | – | – | – | – | – | – | – | – | – | – | – | – | – | – | – | – | – | IC50 [4]: 47000 ± 7000 nM; CC50 at 5 days (in vitro; PBMC or MT-2 cells, CC50 values, data not shown): > 100 µM; CC50 at 5 days (in vitro; peripheral blood mononuclear cells (PBMC), CC50, μM, viability of PBMC): 5.1 ± 2.3 µM
Cc1cn([C@H]2C=C[C@@H](CO)O2)c(=O)[nH]c1=O [d4T, 2′,3′-didehydro-2′,3′-dideoxythymidine] | – | – | – | – | – | – | – | – | – | – | – | – | – | – | – | – | – | – | – | – | IC50 (HIV-1 (strain: HTLVIIIB); [26]): 40 nM; IC50 (HIV-1 (strain: HTLVIIIB); Human immunodeficiency virus 1, PBMC, read-out: IC50 value for inhibition of p24 production, peripheral blood mononuclear cells): 18 nM; IC50 (HIV-1 (strain: HTLVIIIB); [27]): 40 nM; IC50 (HIV-1 (strain: HTLVIIIB); [28]): 18 nM; IC50 (HIV-1 (strain: HTLVIIIB); Human immunodeficiency virus 1, read-out: PBMNC IC50 [RT], PBMNC, Table 4): 4 nM; IC50 (HIV-1 (strain: HTLVIIIB); [29]): 40 nM; CC50 at 5 days (in vitro; CC50, μM): 4.5 ± 1.7 µM; IC50 at 5 days (in vitro; IC50 [MTA]): > 10000 nM
COC(=O)C(C)NP(=O)(OC[C@@H]1C=C[C@H](n2cc(C)c(=O)[nH]c2=O)O1)Oc1ccc(Br)cc1 (some centres unmarked) [Compound 1c, d4T-5′-[p-bromo-phenylmethoxyalaninyl phosphate]] | 20 nM | 20 nM | 20 nM | 0.0794 ± 0.0187 µM | 0.1 µM | 0.06 µM | 0.08 µM | 0.015 µM | 0.04 µM | 0.015 µM | 0.18 µM | 0.08 µM | 0.11 µM | 0.03 µM | 5.8 nM | 0.6 nM | 0.2 nM | 0.8 nM | 4.6 nM | 6.3 nM | IC50 ([2]; read-out: mean IC50 value (plaque assay), mean over 9 zidovudine-resistant isolates): 0.0794 ± 0.0187 µM; IC50 [3, 25]: 3.1 ± 1.2 nM; logs more potent than lamivudine [3, 30]: > 3.4 logs; logs more potent than zidovudine(AZT) [3, 30]: > 1.4 logs; IC50 [4]: < 1 nM; IC50 ([4]; read-out: IC50 A17): 36 ± 21 nM; IC50 (HIV-1 (strain: HTLVIIIB); [26]): 42 nM; IC50 (HIV-1 (strain: HTLVIIIB); [27]): 42 nM; IC50 (HIV-1 (strain: HTLVIIIB); [28]): 22 nM; IC50 (HIV-1 (strain: HTLVIIIB); [29]): 40 nM; CC50 at 5 days (in vitro): > 100 µM; IC50 at 5 days (in vitro): > 10000 nM
